Assay results taken from ChEMBL document CHEMBL3045592, “Studies of O,O-dimethyl α-(2,4-dichlorophenoxyacetoxy)ethylphosphonate (HW02) as a new herbicide. 1. Synthesis and herbicidal activity of HW02 and analogues as novel inhibitors of pyruvate dehydrogenase complex” (J Agric Food Chem, 2011).

Experiments:
Oryza sativa [1] = assay: Inhibition of PDHc in Oryza sativa (rice) shoot mitochondria assessed as decrease in rate of NADH formation using sodium pyruvate as substrate at 1 microg/g preincubated for 25 min before substrate addition measured after 1 min by spectrophotometric assay
Echinochloa crus-galli [2] = assay: Post-emergence herbicidal activity against Echinochloa crus-galli (barnyard grass) assessed as growth inhibition at 18.75 ai g/ha after 20 days by green house test; assay type: functional
[3] = Inhibition of PDHc in Oryza sativa (rice) shoot mitochondria assessed as decrease in rate of NADH formation using sodium pyruvate as substrate preincubated for 25 min before substrate addition measured after 1 min by spectrophotometric assay
Medicago sativa [4] = assay: Post-emergence herbicidal activity against Medicago sativa (alfalfa) assessed as growth inhibition at 75 ai g/ha after 20 days by green house test; assay type: functional
Echinochloa crus-galli [5] = assay: Post-emergence herbicidal activity against Echinochloa crus-galli (barnyard grass) assessed as growth inhibition at 300 ai g/ha after 20 days by green house test; assay type: functional
Xanthium strumarium [6] = assay: Post-emergence herbicidal activity against Xanthium strumarium (cocklebur) assessed as growth inhibition at 225 ai g/ha after 20 days by green house test; assay type: functional
[7] = Toxicity against Oryza sativa (rice) assessed as growth inhibition at 600 ai g/ha post-emergent application measured after 20 days by green house crop selectivity test; assay type: organism-based; settings: in vivo, read-out: GI
[8] = system: Brassica rapa subsp. oleifera; assay: Post-emergence herbicidal activity against Brassica rapa subsp. oleifera Si Yue Man assessed as growth inhibition at 600 ai g/ha after 20 days by green house test; assay type: functional
Daucus carota [9] = assay: Post-emergence herbicidal activity against Daucus carota (carrot) assessed as growth inhibition at 75 ai g/ha after 20 days by green house test; assay type: functional
[10] = Toxicity against Oryza sativa (rice) assessed as growth inhibition at 300 ai g/ha post-emergent application measured after 20 days by green house crop selectivity test; assay type: organism-based; settings: in vivo, read-out: GI
Oryza sativa [11] = assay: Inhibition of PDHc in Oryza sativa (rice) shoot mitochondria assessed as decrease in rate of NADH formation using sodium pyruvate as substrate at 10 microg/g preincubated for 25 min before substrate addition measured after 1 min by spectrophotometric assay
Oryza sativa [12] = assay: Inhibition of PDHc in Oryza sativa (rice) shoot mitochondria assessed as decrease in rate of NADH formation using sodium pyruvate as substrate at 100 microg/g preincubated for 25 min before substrate addition measured after 1 min by spectrophotometric assay
Eclipta prostrata [13] = assay: Post-emergence herbicidal activity against Eclipta prostrata assessed as growth inhibition at 225 ai g/ha after 20 days by green house test; assay type: functional
[14] = system: Brassica rapa subsp. oleifera; assay: Post-emergence herbicidal activity against Brassica rapa subsp. oleifera Si Yue Man assessed as growth inhibition at 450 ai g/ha after 20 days by green house test; assay type: functional
Digitaria sanguinalis [15] = assay: Post-emergence herbicidal activity against Digitaria sanguinalis (hairy crabgrass) assessed as growth inhibition at 225 ai g/ha after 20 days by green house test; assay type: functional
Cardamine hirsuta [16] = assay: Post-emergence herbicidal activity against Cardamine hirsuta assessed as growth inhibition at 37.5 ai g/ha after 20 days by green house test; assay type: functional
[17] = system: Brassica rapa subsp. oleifera; assay: Post-emergence herbicidal activity against Brassica rapa subsp. oleifera Si Yue Man assessed as growth inhibition at 37.5 ai g/ha after 20 days by green house test; assay type: functional
Daucus carota [18] = assay: Post-emergence herbicidal activity against Daucus carota (carrot) assessed as growth inhibition at 450 ai g/ha after 20 days by green house test; assay type: functional
Daucus carota [19] = assay: Post-emergence herbicidal activity against Daucus carota (carrot) assessed as growth inhibition at 225 ai g/ha after 20 days by green house test; assay type: functional
[20] = Toxicity against Triticum aestivum Yang Mai 1 (wheat) assessed as growth inhibition at 225 ai g/ha post-emergent application measured after 20 days by green house crop selectivity test; assay type: organism-based; settings: Yang Mai 1, triticum aestivum, in vivo, read-out: GI
Eclipta prostrata [21] = assay: Post-emergence herbicidal activity against Eclipta prostrata assessed as growth inhibition at 37.5 ai g/ha after 20 days by green house test; assay type: functional
Amaranthus retroflexus = assay: Post-emergence herbicidal activity against Amaranthus retroflexus assessed as growth inhibition at 225 ai g/ha after 20 days by green house test; assay type: functional
Medicago sativa [22] = assay: Post-emergence herbicidal activity against Medicago sativa (alfalfa) assessed as growth inhibition at 18.75 ai g/ha after 20 days by green house test; assay type: functional
Portulaca oleracea = assay: Post-emergence herbicidal activity against Portulaca oleracea assessed as growth inhibition at 37.5 ai g/ha after 20 days by green house test; assay type: functional
Cardamine hirsuta [23] = assay: Post-emergence herbicidal activity against Cardamine hirsuta assessed as growth inhibition at 225 ai g/ha after 20 days by green house test; assay type: functional
Daucus carota [24] = assay: Post-emergence herbicidal activity against Daucus carota (carrot) assessed as growth inhibition at 150 ai g/ha after 20 days by green house test; assay type: functional
[25] = Toxicity against Oryza sativa (rice) assessed as growth inhibition at 225 ai g/ha post-emergent application measured after 20 days by green house crop selectivity test; assay type: organism-based; settings: in vivo, read-out: GI
Daucus carota [26] = assay: Post-emergence herbicidal activity against Daucus carota (carrot) assessed as growth inhibition at 600 ai g/ha after 20 days by green house test; assay type: functional
Daucus carota [27] = assay: Post-emergence herbicidal activity against Daucus carota (carrot) assessed as growth inhibition at 37.5 ai g/ha after 20 days by green house test; assay type: functional
Xanthium strumarium [28] = assay: Post-emergence herbicidal activity against Xanthium strumarium (cocklebur) assessed as growth inhibition at 37.5 ai g/ha after 20 days by green house test; assay type: functional
Medicago sativa [29] = assay: Post-emergence herbicidal activity against Medicago sativa (alfalfa) assessed as growth inhibition at 300 ai g/ha after 20 days by green house test; assay type: functional
[30] = target: Pyruvate dehydrogenase complex (Vigna radiata var. radiata); assay: Inhibition of PDHc in Vigna radiata var. radiata VC2778A shoot mitochondria assessed as decrease in rate of NADH formation using sodium pyruvate as substrate preincubated for 25 min before substrate addition measured after 1 min by spectrophotometric assay; assay type: protein-complex assay
Cardamine hirsuta [31] = assay: Post-emergence herbicidal activity against Cardamine hirsuta assessed as growth inhibition at 150 ai g/ha after 20 days by green house test; assay type: functional
Oryza sativa [32] = assay: Inhibition of PDHc in Oryza sativa (rice) shoot mitochondria assessed as decrease in rate of NADH formation using sodium pyruvate as substrate at 1000 microg/g preincubated for 25 min before substrate addition measured after 1 min by spectrophotometric assay
[33] = Toxicity against Triticum aestivum Yang Mai 1 (wheat) assessed as growth inhibition at 300 ai g/ha post-emergent application measured after 20 days by green house crop selectivity test; assay type: organism-based; settings: Yang Mai 1, triticum aestivum, in vivo, read-out: GI
Echinochloa crus-galli [34] = assay: Post-emergence herbicidal activity against Echinochloa crus-galli (barnyard grass) assessed as growth inhibition at 225 ai g/ha after 20 days by green house test; assay type: functional
Eclipta prostrata [35] = assay: Post-emergence herbicidal activity against Eclipta prostrata assessed as growth inhibition at 75 ai g/ha after 20 days by green house test; assay type: functional
Digitaria sanguinalis [36] = assay: Post-emergence herbicidal activity against Digitaria sanguinalis (hairy crabgrass) assessed as growth inhibition at 300 ai g/ha after 20 days by green house test; assay type: functional

For COP(=O)(OC)C(C)OC(=O)COc1ccc(Cl)cc1Cl (stereo not drawn) [CLACYFOS], which inhibition (Oryza sativa [1]) is on record?
Its inhibition is 8.2%.

And the “growth inhibition (GI)” value (Echinochloa crus-galli [2])?
Its value is 0%.

What about the IC50 [3] of the same molecule?
Its IC50 is 867 µM.

What about the “growth inhibition (GI)” value (Medicago sativa [4]) of the same molecule?
The value was 84%.

And the “growth inhibition (GI)” value (Echinochloa crus-galli [5])?
Its value is 20%.

What about the “growth inhibition (GI)” value (Xanthium strumarium [6]) of the same molecule?
The value was 95%.

What about the inhibition at 480 h [7] of the same molecule?
Its inhibition at 480 h is 0%.

And the “growth inhibition (GI)” value [8]?
Its value is 100%.

And the “growth inhibition (GI)” value (Daucus carota [9])?
Its value is 90%.

What about the inhibition at 480 h [10] of the same molecule?
The inhibition at 480 h was 0%.

And the inhibition (Oryza sativa [11])?
The inhibition was 16.9%.

And the inhibition (Oryza sativa [12])?
Its inhibition is 21.3%.

What about the “growth inhibition (GI)” value (Eclipta prostrata [13]) of the same molecule?
Its value is 96%.

What about the “growth inhibition (GI)” value [14] of the same molecule?
The value was 100%.

What about the “growth inhibition (GI)” value (Digitaria sanguinalis [15]) of the same molecule?
The value was 22.5%.

What about the “growth inhibition (GI)” value (Cardamine hirsuta [16]) of the same molecule?
Its value is 84%.

And the “growth inhibition (GI)” value [17]?
The value was 90%.

And the “growth inhibition (GI)” value (Daucus carota [18])?
The value was 100%.

What about the “growth inhibition (GI)” value (Daucus carota [19]) of the same molecule?
Its value is 97%.

What about the inhibition at 480 h [20] of the same molecule?
Its inhibition at 480 h is 0%.

What about the “growth inhibition (GI)” value (Eclipta prostrata [21]) of the same molecule?
The value was 72%.

What about the “growth inhibition (GI)” value (Amaranthus retroflexus) of the same molecule?
The value was 100%.

And the “growth inhibition (GI)” value (Medicago sativa [22])?
Its value is 60%.

What about the “growth inhibition (GI)” value (Portulaca oleracea) of the same molecule?
The value was 65%.

And the “growth inhibition (GI)” value (Cardamine hirsuta [23])?
The value was 95%.

What about the “growth inhibition (GI)” value (Daucus carota [24]) of the same molecule?
Its value is 95%.

What about the inhibition at 480 h [25] of the same molecule?
Its inhibition at 480 h is 0%.

What about the “growth inhibition (GI)” value (Daucus carota [26]) of the same molecule?
Its value is 100%.

What about the “growth inhibition (GI)” value (Daucus carota [27]) of the same molecule?
Its value is 85%.

What about the “growth inhibition (GI)” value (Xanthium strumarium [28]) of the same molecule?
The value was 60%.

And the “growth inhibition (GI)” value (Medicago sativa [29])?
The value was 97%.

And the IC50 [30]?
The IC50 was 12.8 µM.

And the “growth inhibition (GI)” value (Cardamine hirsuta [31])?
The value was 92.5%.

And the inhibition (Oryza sativa [32])?
Its inhibition is 55.1%.

And the inhibition at 480 h [33]?
Its inhibition at 480 h is 0%.

And the “growth inhibition (GI)” value (Echinochloa crus-galli [34])?
The value was 10%.

And the “growth inhibition (GI)” value (Eclipta prostrata [35])?
The value was 82.5%.

And the “growth inhibition (GI)” value (Digitaria sanguinalis [36])?
The value was 32%.
